# Assays:
# NOTCH-1 = assay: NOTCH-sensitive luciferase reporter gene assay in transiently transfected U2OS cells; type: cell-based, human
# Protocol: FIG. 4A-4B. HD and PEST domain mutations activate NOTCH-1 signaling synergistically. (4A) Reporter gene assays. U2OS cells were transiently co-transfected in 24-well format with the indicated pcDNA3 plasmids, a NOTCH-responsive luciferase reporter gene, and an internal Renilla luciferase internal control plasmid, as described previously (Aster, et al., Mol. Cell. Biol. 20:7505-15). Twenty-five ng of pcDNA3 plasmid was used per well, except for experiments with pcDNA3-ICN1, in which 5 ng of plasmid per well were used. Normalized luciferase activities in whole cell lysates were determined in triplicate and expressed relative to the activity in lysates prepared from cells transfected with the empty vector control. (4B) Model for synergistic NOTCH-1 activation by dual mutations involving both the HD and PEST domains.
# NOTCH-1 expression plasmids (pcDNA3) were transiently transfected with U2OS cells with (i) an artificial luciferase reporter gene under the control of a promoter containing CSL binding sites and (ii) an internal Renilla luciferase control gene, as described previously (Aster, et al., Mol. Cell. Biol. 20:7505-7515 (2000)), using Lipofectamine Plus (Invitrogen). Total DNA was kept constant by adding empty vector as needed. All transfections were carried out in triplicate, and each experiment was repeated at least three times.
# human T-ALL cell lines = assay: Gamma-secretase inhibitor treatment of T-ALL cell lines, cell cycle analysis by flow cytometry; type: cell-based; details: compound E 1 μM, 4-8 days; thirty human T-ALL cell lines lacking t(7;9); compared with murine T6E reference line
# Protocol: FIG. 2A-2C. Identification of T-ALL cell lines that require NOTCH signals for growth. (2A) Effect of the γ-secretase inhibitor compound E (GSI, 1 μM) or vehicle alone (mock) on the cell cycle distribution of sensitive cell lines. Cells were treated for 4-8 days, fixed in cold 70% ethanol, stained with propidium iodide, and analyzed by flow cytometry. Live cells were gated by forward/side scatter criteria. (2B) Rescue of GSI-induced cell cycle arrest by MSCV-GFP-ICN1 retrovirus. (2C) Induction of cell cycle arrest by dominant negative MSCV-GFP-Mastermind-like-1 retrovirus. In (2B) and (2C), control cultures were transduced with control empty MSCV-GFP retrovirus or the indicated test virus. Two days post-transduction, cultures were split in two and treated with either compound E (GSI) or DMSO vehicle (mock) for 7-10 days. Cultures were then harvested and stained with the DNA dye DRAQ5, which permits flow cytometric measurement of DNA content in unsorted GFP− and GFP+ subpopulations. A minimum of 15,000 events was collected to create each DNA content histogram. […]
# DNA content was ascertained by flow cytometry and cell cycle factors determined using multicycle software (Phoenix Flow Systems, San Diego).
structure (smiles),measurement,setting,value
"C[C@H](NC(=O)Cc1cc(F)cc(F)c1)C(=O)N[C@H]1N=C(c2ccccc2)c2ccccc2N(C)C1=O [γ-secretase inhibitor, compound E]",stimulatory effects of mutated transmembrane NOTCH-1 polypeptides on luciferase reporter activity,NOTCH-1; HD and/or PEST domain mutated NOTCH-1 plasmids,completely abrogated
same,stimulation of luciferase reporter activity produced by ICN1,NOTCH-1; pcDNA3-ICN1 (constitutively nuclear),unaffected
same,cell cycle distribution (G0/G1 cell cycle arrest) of T-ALL cell lines,human T-ALL cell lines,five of thirty human T-ALL cell lines tested showed a G0/G1 cell cycle arrest

# — patent US8716233B2, “NOTCH mutations leading to increased receptor signaling” (The Brigham and Women's Hospital, Inc., priority 2004, dated 2014)
